Test results taken from the NIST ThermoML archive (doi:10.1016/j.fluid.2009.06.018).

Assays:
[1] = refractive index (Na D-line) (dimensionless); conditions: 298.15 K; 101.33 kPa; Liquid; Standard Abbe refractometry
[2] = 298.15 K; 101.33 kPa; Liquid; Vibrating tube method
[3] = xn = mol fraction of the nth substance listed; conditions: 298.15 K, 101 kPa, Liquid, Vibrating tube method
[4] = excess molar enthalpy (molar enthalpy of mixing); xn = mol fraction of the nth substance listed; conditions: 298.15 K, 101 kPa, Liquid, Flow calorimetry

CCCCOCCOCCOCCO [triethylene glycol monobutyl ether]
Conditions | mass density [kg/m3] | refractive index
[1] | – | 1.43973
[2] | 988.44 | –

CC(Cl)CCl (configuration not stated) [1,2-dichloropropane]
Conditions | mass density [kg/m3] | refractive index
[1] | – | 1.43656
[2] | 1149.03 | –

CCOCCOCCOCCO [2-(2-(2-ethoxyethoxy)ethoxy)ethanol]
Conditions | mass density [kg/m3] | refractive index
[1] | – | 1.43623
[2] | 1016.19 | –

CCCOCCOCCO [2-(2-propoxyethoxy)ethanol] + CC(Cl)CCl
Conditions | excess molar enthalpy [kcal/mol] | mass density [kg/m3]
[3], x2 = 0.054 | – | 969.58
[3], x2 = 0.105 | – | 976.29
[3], x2 = 0.1473 | – | 982.03
[3], x2 = 0.203 | – | 989.81
[3], x2 = 0.2494 | – | 996.53
[3], x2 = 0.3 | – | 1004.1
[3], x2 = 0.3488 | – | 1011.66
[3], x2 = 0.4014 | – | 1020.11
[3], x2 = 0.4516 | – | 1028.46
[3], x2 = 0.5005 | – | 1036.91
[3], x2 = 0.5504 | – | 1045.89
[3], x2 = 0.5995 | – | 1055.07
[3], x2 = 0.6509 | – | 1065.09
[3], x2 = 0.7009 | – | 1075.28
[3], x2 = 0.752 | – | 1086.18
[3], x2 = 0.8015 | – | 1097.29
[3], x2 = 0.851 | – | 1109.05
[3], x2 = 0.9018 | – | 1121.84
[3], x2 = 0.9476 | – | 1134.08
[4], x2 = 0.06 | -0.0351 | –
[4], x2 = 0.119 | -0.0599 | –
[4], x2 = 0.147 | -0.0709 | –
[4], x2 = 0.202 | -0.0895 | –
[4], x2 = 0.255 | -0.103 | –
[4], x2 = 0.306 | -0.1117 | –
[4], x2 = 0.355 | -0.116 | –
[4], x2 = 0.402 | -0.1173 | –
[4], x2 = 0.447 | -0.1153 | –
[4], x2 = 0.511 | -0.107 | –
[4], x2 = 0.552 | -0.0989 | –
[4], x2 = 0.592 | -0.0897 | –
[4], x2 = 0.648 | -0.0737 | –
[4], x2 = 0.702 | -0.0561 | –
[4], x2 = 0.753 | -0.0387 | –
[4], x2 = 0.802 | -0.0225 | –
[4], x2 = 0.848 | -0.00722 | –
[4], x2 = 0.907 | 0.00621 | –
[4], x2 = 0.948 | 0.00903 | –

CCCCOCCOCCO [3,6-dioxa-1-decanol] + CC(Cl)CCl
Conditions | excess molar enthalpy [kcal/mol] | mass density [kg/m3]
[3], x2 = 0.052 | – | 954.88
[3], x2 = 0.1 | – | 961.07
[3], x2 = 0.155 | – | 968.38
[3], x2 = 0.1997 | – | 974.56
[3], x2 = 0.2496 | – | 981.76
[3], x2 = 0.3037 | – | 989.93
[3], x2 = 0.3497 | – | 997.2
[3], x2 = 0.4033 | – | 1006.02
[3], x2 = 0.4504 | – | 1014.14
[3], x2 = 0.4998 | – | 1023.03
[3], x2 = 0.5535 | – | 1033.23
[3], x2 = 0.6001 | – | 1042.57
[3], x2 = 0.6494 | – | 1052.96
[3], x2 = 0.7024 | – | 1064.78
[3], x2 = 0.7527 | – | 1076.67
[3], x2 = 0.8024 | – | 1089.22
[3], x2 = 0.8488 | – | 1101.75
[3], x2 = 0.901 | – | 1116.84
[3], x2 = 0.9479 | – | 1131.48
[4], x2 = 0.066 | -0.039 | –
[4], x2 = 0.098 | -0.0499 | –
[4], x2 = 0.161 | -0.0736 | –
[4], x2 = 0.191 | -0.086 | –
[4], x2 = 0.248 | -0.0983 | –
[4], x2 = 0.303 | -0.107 | –
[4], x2 = 0.355 | -0.1121 | –
[4], x2 = 0.404 | -0.113 | –
[4], x2 = 0.45 | -0.1104 | –
[4], x2 = 0.495 | -0.105 | –
[4], x2 = 0.558 | -0.0936 | –
[4], x2 = 0.598 | -0.0852 | –
[4], x2 = 0.654 | -0.0686 | –
[4], x2 = 0.707 | -0.0514 | –
[4], x2 = 0.757 | -0.0343 | –
[4], x2 = 0.803 | -0.0186 | –
[4], x2 = 0.847 | -0.00454 | –
[4], x2 = 0.902 | 0.00837 | –
[4], x2 = 0.953 | 0.00985 | –
